Measured values published in publication PMC5391968, “Comparison of cell-based assays for the identification and evaluation of competitive CXCR4 inhibitors” (PLoS ONE, 2017).
Read-outs that look alike come from different tables or passages of the source.

How the values were obtained:
CXCR4 [1] = biological target: T1, CXCR4 (Homo sapiens, UniProt P61073); test: CXCL12^AF647 binding assay on Jurkat cells; settings: Jurkat cells, 2.9 nM CXCL12^AF647, mean ± SEM; read-out: IC50 CXCL12-CXCR4 binding interaction
T1 sequence (P61073 whole entry): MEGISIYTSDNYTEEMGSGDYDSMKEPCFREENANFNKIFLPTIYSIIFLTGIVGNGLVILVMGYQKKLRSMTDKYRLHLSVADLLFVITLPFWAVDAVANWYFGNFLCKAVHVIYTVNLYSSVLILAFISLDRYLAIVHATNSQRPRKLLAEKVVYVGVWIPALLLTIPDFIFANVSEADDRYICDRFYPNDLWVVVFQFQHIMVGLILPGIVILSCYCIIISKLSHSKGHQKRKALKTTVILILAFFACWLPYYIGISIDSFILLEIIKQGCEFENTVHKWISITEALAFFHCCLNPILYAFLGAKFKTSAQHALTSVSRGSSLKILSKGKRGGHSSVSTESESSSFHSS
Protocol: In brief, Jurkat cells were washed twice in assay buffer [Hank’s Balanced Salt Solution (HBSS; Thermo Fisher Scientific), 20 mM HEPES buffer (Thermo Fisher Scientific), 0.2% bovine serum albumin (Sigma-Aldrich), pH 7.4]. […] Afterwards, cells were washed twice in assay buffer and subsequently fixed in 1% paraformaldehyde in Dulbecco’s phosphate buffered saline (DPBS). Samples were analyzed with the FACSArray flow cytometer (Becton Dickinson, NJ, USA). Data were further analyzed with the FlowJo Software (Ashland, Oregon, USA).

CXCR4 [2] = biological target: T1, CXCR4; test: Calcium mobilization assay (FLIPR Tetra) in U87.CD4.CXCR4 cells; format: cell-based; settings: U87.CD4.CXCR4 cells, 6.25 nM CXCL12, mean ± SEM; read-out: IC50 Calcium signaling (CXCL12-induced)
Protocol: U87.CD4.CXCR4 cells were seeded at 2x10^4 cells per well in gelatin-coated black-walled 96-well plates [0.1% gelatin in DPBS, incubated at RT for two hours and washed once with DPBS] and incubated at 37°C and 5% CO2 overnight. […] Fluo-2 AM loaded cells were washed with assay buffer before being incubated in the FLIPR Tetra system at 37°C for five minutes. At the start of the kinetic measurement, compounds were added to the cell plate by the internal robotic system followed by an incubation period of 10 minutes during which changes in the intracellular calcium level were continuously measured by the FLIPR Tetra. […] Each condition was measured in triplicate and repeated several times as further indicated (see Results).

HIV-1 NL4-3 (X4) [3] = test: microbe, parasite or virus in culture; format: cell-based; settings: PHA-stimulated PBMCs, ten days post infection, p24 Ag ELISA, mean ± SEM, read-out: IC50 HIV-1 (X4) NL4-3 replication, PHA-stimulated PBMCs
Protocol: PHA-stimulated PBMCs at 5x10^5 cells per sample, pre-incubated with test compounds dissolved in cell culture medium containing IL-2 (2 ng/ml; […] After three days, fresh culture medium with IL-2 was added. Ten days post infection cell supernatant was collected for HIV-1 p24 core antigen enzyme-linked immunosorbent assay (ELISA; Perkin Elmer, Boston, MA, USA) according to the manufacturer’s protocol. In the antiviral assays, each condition was tested in duplicate.

[4] = test system: CXCR4-positive Jurkat cells; test: cells; format: cell-based, human; settings: read-out: IC50 Chemotaxis
Protocol: Jurkat cells were washed twice in assay buffer (see above), dispensed into a 96-well plate (5x10^5 cells per well) containing serial dilutions of compounds (in assay buffer) and incubated at RT in the dark for 10 minutes. […] Suspensions of 1.87x10^4 cells were transferred to the chemotaxis insert plate. […] After removal of the insert plate, migrated cells were centrifuged and resuspended in DPBS containing flow cytometry cell counting beads ([…] Fluorescent Particles; Gentaur, London, UK). Both migrated cells and particles were counted by flow cytometry (FACSCanto II; Becton Dickinson). Each compound concentration was tested in triplicate. Data were analyzed using the FlowJo software and the total number of migrated cells was calculated, according to the counted and total number of beads present in the sample.

CXCR4 [5] = biological target: T1, CXCR4; test: CXCR4 internalization assay in SUP-T1 cells; format: cell-based; set-up: CXCR4 receptors endogenously expressed on SUP-T1 cells; endogenous in cells; host or cells: SUP-T1 (ATCC); settings: for induction of CXCR4 internalization (agonistic effect): in absence of CXCL12, data not shown; for IC50: SUP-T1 cells, 6.25 nM CXCL12, 37°C 30 minutes, mean ± SEM
Protocol: T-lymphoblastic SUP-T1 cells were washed twice in DPBS containing 2% FBS. Afterwards, cells were first incubated with the PE-labeled rat anti-human CXCR4 mAb (clone 1D9; 2 μg/ml in DPBS/2% FBS; BD Pharmingen) on ice for 45 minutes. […] SUP-T1 cells were subsequently washed once with ice cold DPBS and twice with ice cold assay buffer (see above) before being treated with test compound on ice for 15 minutes. […] Samples were immediately analyzed with the FACSCalibur flow cytometer (Becton Dickinson) whereby the measured fluorescence corresponds to the amount of […] CXCR4 receptors. Data were further analyzed with the FlowJo software.

HIV-1 NL4-3 (X4) [6] = test: microbe, parasite or virus in culture; format: cell-based; settings: MT-4 cells, four days post infection, MTS, mean ± SEM, read-out: IC50 HIV-1 (X4) NL4-3 replication, MT-4 cells
Protocol: The anti-HIV replication assays in MT-4 cells and PHA-stimulated PBMCs have been described previously. The HIV-1 T-tropic molecular clone NL4-3 (X4) was obtained from the National Institute of Allergy and Infectious Disease (NIAID) AIDS reagent program (Bethesda, MD, USA). Briefly, 5x10^4 MT-4 cells (in cell culture medium) were treated with different concentrations of compound at 37°C for 30 minutes. Afterwards, a 50% tissue culture infectious dose of the NL4-3 viral stock was added to the cell-compound mixtures. Four days post infection, the cytopathic effect was evaluated microscopically and cell viability was assessed with the MTS method, as described above.
In the antiviral assays, each condition was tested in duplicate.

CXCR7 = biological target: T2, CXCR7 (Homo sapiens, UniProt P25106); test: CXCL12 binding on CXCR7-transfected U87 cells (U87.CD4.CXCR7); settings: data not shown
T2 construct: expressed in transfected cells; host or cells: U87.CD4 cells transfected with pTEJ-8 plasmid carrying human CXCR7 cDNA
T2 sequence (P25106 whole entry): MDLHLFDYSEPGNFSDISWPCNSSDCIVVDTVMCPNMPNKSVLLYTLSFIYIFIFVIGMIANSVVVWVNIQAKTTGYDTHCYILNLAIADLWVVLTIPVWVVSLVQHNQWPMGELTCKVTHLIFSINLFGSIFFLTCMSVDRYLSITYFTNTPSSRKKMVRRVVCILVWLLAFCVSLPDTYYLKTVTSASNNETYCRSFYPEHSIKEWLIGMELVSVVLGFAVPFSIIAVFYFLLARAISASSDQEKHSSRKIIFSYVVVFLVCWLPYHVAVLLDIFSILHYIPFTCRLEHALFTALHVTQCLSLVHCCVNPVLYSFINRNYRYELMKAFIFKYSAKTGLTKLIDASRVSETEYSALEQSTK

[7] = Jurkat cells, 6.25 nM CXCL12, two hours, mean ± SEM
[8] = Human immunodeficiency virus 1, NL43, PBMC, 240 h
[9] = Human immunodeficiency virus 1, NL43, MT4, 96 h

Compound | IC50 (CXCR4 [1]) [nM] | IC50 (CXCR4 [2]) [nM] | IC50 (HIV-1 NL4-3 (X4) [3]) [nM] | IC50 [4, 7] [nM] | induction of CXCR4 internalization (agonistic effect) (CXCR4 [5]; 100 μM) | IC50 (CXCR4 [5]) [nM] | IC50 (HIV-1 NL4-3 (X4) [6]) [nM] | induction of CXCR4 internalization (agonistic effect) (CXCR4 [5]; 50 μM) | inhibition of CXCL12 binding on CXCR7 (CXCR7) | IC50 (HIV-1 NL4-3 (X4) [3]; [8]) [nM] | IC50 ([4]; Homo sapiens, Jurkat, 2 h) [nM] | IC50 (HIV-1 NL4-3 (X4) [6]; [9]) [nM]
CN(C)CCN(CCN(C)C)CCN(C)C [Me6TREN] | 51900 | > 100000 | > 100000 | > 100000 | absence of an agonistic effect | > 100000 | > 100000 | – | – | – | – | –
c1ccc(CNCc2ccc(CN3CCCNCCNCCCNCC3)cc2)nc1 [AMD3465] | 2.1 ± 0.24 | 53.4 ± 24.3 | 27.2 ± 8.7 | 116 ± 15.2 | – | 67.3 ± 11.3 | 21.8 ± 10.1 | absence of an agonistic effect | – | – | – | –
NCCCCN(Cc1nc2ccccc2[nH]1)[C@H]1CCCc2cccnc21 [AMD11070] | – | – | – | – | – | – | – | absence of an agonistic effect | reduced CXCL12 binding on CXCR7 in the lower micromolar range | 26.4 ± 6.1 | 74.9 ± 17.7 | 11.9 ± 4.6
c1cc(CN2CCCNCCNCCCNCC2)ccc1CN1CCCNCCNCCCNCC1 [AMD3100] | – | – | – | – | – | – | – | absence of an agonistic effect | – | 14.9 ± 3.2 | 1430 | 11.8 ± 3.4
CC1(C)CN2C(CSC(=NC3CCCCC3)NC3CCCCC3)=CSC2=N1 [IT1t] | – | – | 19 ± 2.3 | 79.1 ± 9.6 | – | – | 14.2 ± 5.3 | – | – | – | – | –
